# According to ChEMBL document CHEMBL1201862, “PubChem BioAssay data set” (2004):
#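 Following 48 hours of exposure in 96-well plates, responses at five concentrations were used to interpolate endpoints linearly. GI50 is the concentration that inhibits growth by half.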 Active and inactive are the calls of the source. No stated cut-off is given here; in the data, active = GI50 up to about 1.1 µM and inactive = higher.
# Columns and labels:
# Experiment in all cases: DTP human tumour cell line panel, 48 h
# SK-MEL-2 = test system: SK-MEL-2
# MOLT-4 = test system: MOLT-4
# A549 = test system: A549
# MDA-MB-435 = test system: MDA-MB-435
# HT-29 = test system: HT-29
# T47D = test system: T47D
# A498 = test system: A498
# HCT-116 = test system: HCT-116
# UO-31 = test system: UO-31
# PC-3 = test system: PC-3
# MCF7 = test system: MCF7
# Hs-578T = test system: Hs-578T
# OVCAR-5 = test system: OVCAR-5
# IGROV-1 = test system: IGROV-1
# K562 = test system: K562
# OVCAR-8 = test system: OVCAR-8
# SK-OV-3 = test system: SK-OV-3
# LOX IMVI = test system: LOX IMVI
# SF-539 = test system: SF-539
# TK-10 = test system: TK-10
# OVCAR-3 = test system: OVCAR-3
# OVCAR-4 = test system: OVCAR-4
# NCI-H226 = test system: NCI-H226
# M14 = test system: M14
# Malme-3M = test system: Malme-3M
# RPMI-8226 = test system: RPMI-8226
# UACC-257 = test system: UACC-257
# 786-0 = test system: 786-0
# HOP-92 = test system: HOP-92
# SW-620 = test system: SW-620
# SF-295 = test system: SF-295
# HCT-15 = test system: HCT-15
# CCRF-CEM = test system: CCRF-CEM
# MDA-MB-231 = test system: MDA-MB-231
# SN12C = test system: SN12C
# HL-60 = test system: HL-60
# UACC-62 = test system: UACC-62
# COLO 205 = test system: COLO 205
# CAKI-1 = test system: CAKI-1
# SR = test system: SR
# SK-MEL-28 = test system: SK-MEL-28
# DU-145 = test system: DU-145
# HOP-62 = test system: HOP-62
# SNB-19 = test system: SNB-19
# RXF 393 = test system: RXF 393
# SK-MEL-5 = test system: SK-MEL-5
# ACHN = test system: ACHN
# BT-549 = test system: BT-549
# SF-268 = test system: SF-268
# NCI/ADR-RES = test system: NCI/ADR-RES
# U-251 = test system: U-251
# KM12 = test system: KM12
# EKVX = test system: EKVX
# MDA-N = test system: MDA-N
# NCI-H460 = test system: NCI-H460
# SNB-75 = test system: SNB-75
# NCI-H522 = test system: NCI-H522
smiles,measurement,setting,value
COc1ccc(/C=C/C(=O)c2nc3ccccc3[nH]2)cc1,GI50,SK-MEL-2,28.6 µM (inactive)
same,GI50,MOLT-4,18 µM (inactive)
same,GI50,A549,24.9 µM (inactive)
same,GI50,MDA-MB-435,11.7 µM (inactive)
same,GI50,HT-29,7.03 µM (inactive)
same,GI50,T47D,10.7 µM (inactive)
same,GI50,A498,26.4 µM (inactive)
same,GI50,HCT-116,5.37 µM (inactive)
same,GI50,UO-31,15.7 µM (inactive)
same,GI50,PC-3,21.8 µM (inactive)
same,GI50,MCF7,8.38 µM (inactive)
same,GI50,Hs-578T,21.3 µM (inactive)
same,GI50,OVCAR-5,22 µM (inactive)
same,GI50,IGROV-1,6.07 µM (inactive)
same,GI50,K562,4.88 µM (inactive)
same,GI50,OVCAR-8,21 µM (inactive)
same,GI50,SK-OV-3,21.2 µM (inactive)
same,GI50,LOX IMVI,9.91 µM (inactive)
same,GI50,SF-539,8.32 µM (inactive)
same,GI50,TK-10,18.1 µM (inactive)
same,GI50,OVCAR-3,17.8 µM (inactive)
same,GI50,OVCAR-4,21.1 µM (inactive)
same,GI50,NCI-H226,5.32 µM (inactive)
same,GI50,M14,20.3 µM (inactive)
same,GI50,Malme-3M,19 µM (inactive)
same,GI50,RPMI-8226,3.8 µM (inactive)
same,GI50,UACC-257,22 µM (inactive)
same,GI50,786-0,11.6 µM (inactive)
same,GI50,HOP-92,14 µM (inactive)
same,GI50,SW-620,13.5 µM (inactive)
same,GI50,SF-295,21 µM (inactive)
same,GI50,HCT-15,10.9 µM
same,GI50,CCRF-CEM,> 100 µM (inactive)
same,GI50,MDA-MB-231,23.4 µM (inactive)
same,GI50,SN12C,25.7 µM (inactive)
same,GI50,HL-60,9.79 µM (inactive)
same,GI50,UACC-62,17.6 µM (inactive)
same,GI50,COLO 205,13.2 µM (inactive)
same,GI50,CAKI-1,33.3 µM (inactive)
same,GI50,SR,2.71 µM (inactive)
same,GI50,SK-MEL-28,24.5 µM (inactive)
same,GI50,DU-145,17.3 µM (inactive)
same,GI50,HOP-62,25.4 µM (inactive)
same,GI50,SNB-19,24.2 µM (inactive)
same,GI50,RXF 393,15.5 µM (inactive)
same,GI50,SK-MEL-5,17.9 µM (inactive)
same,GI50,ACHN,15.1 µM (inactive)
same,GI50,BT-549,22.5 µM (inactive)
same,GI50,SF-268,15.2 µM (inactive)
same,GI50,NCI/ADR-RES,18.2 µM (inactive)
same,GI50,U-251,13.8 µM (inactive)
same,GI50,KM12,4.62 µM (inactive)
same,GI50,EKVX,15.1 µM (inactive)
same,GI50,MDA-N,11.9 µM (inactive)
same,GI50,NCI-H460,20.5 µM (inactive)
same,GI50,SNB-75,19.8 µM (inactive)
same,GI50,NCI-H522,13.6 µM (inactive)
